{
  "source": "patent US12655437B2",
  "about": "“Compositions and methods for modulating the gastrointestinal tract using bile salt hydrolases” (North Carolina State University, priority 2019, dated 2026)",
  "key": {"L. acidophilus ΔbshAB": {"system": "L. acidophilus ΔbshAB", "test": "Growth of L. acidophilus bsh mutants in MRS media supplemented with bile acids", "format": "cell-based, Lactobacillus acidophilus", "description": "FIG. 12: L. acidophilus bshA and bshB contribute to bile acid detoxification in a substrate dependent manner. Growth of BSH mutants in the presence of bile acids. To evaluate the role of BSH activity during L. acidophilus growth, single and double BSH mutants were grown in MRS media supplemented with bile acids and growth was measured by OD600 nm.\nFIGS. 13A-13G: L. acidophilus bshA and bshB contribute to bile acid detoxification in a substrate and concentration dependent manner.\nFIGS. 12-14 include representative results of experiments conducted to evaluate the role of BSH activity during L. acidophilus growth. […] The L. acidophilus strains with deletion in bshA, bshB, and bshAB were tested in plate assays and growth curves were determined. The ΔbshA, ΔbshB, and ΔbshAB L. acidophilus and L. gasseri strains were grown in the presence of conjugated bile acids to test BSH contributions to bile acid detoxification. FIG. 12 provides growth curves of L. acidophilus mutants grown in a variety of bile acid concentrations. As shown, single and double BSH mutants (ΔbshA and ΔbshB) were grown in MRS media supplemented with bile acids.\n(§1) Error bars represent s.d. from n=4 independent experiments. Dashed lined denotes the approximate starting CFUs/mL at 0 h. Exogenous recombinant LaBSHa and LaBSHb (LaBSHab) or LgBSHa and LgBSHb (LgBSHab) were supplemented to cultures in equimolar amounts to L. acidophilus ΔbshAB or L. gasseri ΔbshAB growths to functionally complement ΔbshAB strains."}, "L. gasseri ΔbshAB": {"system": "L. gasseri ΔbshAB", "test": "Growth of L. gasseri bsh mutants in MRS media supplemented with bile acids", "format": "cell-based, Lactobacillus gasseri", "description": "as §1, with “bars represent standard deviation (s.d.) from n=4” for “bars represent s.d. from n=4”, “amounts to (A) L. acidophilus” for “amounts to L. acidophilus”, “ΔbshAB or (B) L. gasseri” for “ΔbshAB or L. gasseri”\nThe L. acidophilus strains with deletion in bshA, bshB, and bshAB were tested in plate assays and growth curves were determined. The ΔbshA, ΔbshB, and ΔbshAB L. acidophilus and L. gasseri strains were grown in the presence of conjugated bile acids to test BSH contributions to bile acid detoxification. FIG. 12 provides growth curves of L. acidophilus mutants grown in a variety of bile acid concentrations."}, "C. difficile [1]": {"system": "C. difficile", "test": "Growth of C. difficile anaerobically in BHIS medium supplemented with bile acids and purified BSH", "format": "cell-based, Clostridioides difficile", "settings": "BHIS media supplemented with the bile acid alone", "description": "FIGS. 22A-22C: BSH specificity can leveraged to inhibit Clostridioides difficile in a conjugated bile acid substrate-dependent manner. (A) Recombinantly expressed and purified L. johnsonii BSHs were assayed for deconjugation with GCDCA and TCDCA. Specific activities for each BSH were determined by quantifying the rate of amino acid release by Ninhydrin assay. (B, C) Growth of C. difficile anaerobically in BHIS medium supplemented with GCDCA, TCDCA, or CDCA in combination with purified LjoBSHa or LjoBSHc.\nAs shown in FIGS. 9-11, recombinant BHSs were overexpressed and purified to homogeneity, and experiments were conducted to evaluate their activity. Two recombinant BSH enzymes were used for this assay. […] TCDCA was chosen as a conjugated bile acid to be used in the growth assays due to C. difficile's sensitivity to the CDCA that is released from BSH activity. […] A high dosage of LjoBSHa is needed to overcome its catalytic deficiency (FIG. 9).\nTCDCA was chosen as a conjugated bile acid to be used in this growth (FIGS. 22B-22C) assay due to C. difficile's sensitivity to the CDCA that is released from BSH activity. […] A high dosage of LjoBSHa is needed to overcome its catalytic deficiency."}, "C. difficile [2]": {"system": "C. difficile", "settings": "cited from earlier work"}},
  "data": [
    {"smiles": "C[C@H](CCC(=O)NCC(=O)O)[C@H]1CC[C@H]2[C@@H]3[C@H](O)C[C@@H]4C[C@H](O)CC[C@]4(C)[C@H]3CC[C@]12C", "note": "[GCDCA, glycochendeoxycholate]", "values": [
      {"measurement": "growth of L. acidophilus ΔbshAB", "setting": "L. acidophilus ΔbshAB; 2.5 mM bile acid in MRS", "value": "significantly inhibited"},
      {"measurement": "growth of L. gasseri ΔbshAB", "setting": "L. gasseri ΔbshAB; 2.5 mM bile acid in MRS", "value": "significantly inhibited"}
    ]},
    {"smiles": "C[C@H](CCC(=O)NCCS(=O)(=O)O)[C@H]1CC[C@H]2[C@@H]3[C@H](O)C[C@@H]4C[C@H](O)CC[C@]4(C)[C@H]3CC[C@]12C", "note": "[TCDCA, taurochendeoxycholate]", "values": [
      {"measurement": "C. difficile growth", "setting": "C. difficile [1]", "value": "no inhibition of growth"},
      {"measurement": "growth of L. acidophilus ΔbshAB", "setting": "L. acidophilus ΔbshAB; 5 mM bile acid in MRS", "value": "less inhibited"},
      {"measurement": "effect on C. difficile", "setting": "C. difficile [2]; bile acid alone", "value": "does not affect C. difficile"}
    ]},
    {"smiles": "C[C@H](CCC(=O)O)[C@H]1CC[C@H]2[C@@H]3[C@H](O)C[C@@H]4C[C@H](O)CC[C@]4(C)[C@H]3CC[C@]12C", "note": "[CDCA, chendeoxycholate]", "values": [
      {"measurement": "C. difficile growth", "setting": "C. difficile [1]", "value": "complete inhibition"},
      {"measurement": "C. difficile spore germination", "setting": "C. difficile [2]", "value": "inhibits"},
      {"measurement": "C. difficile vegetative cells", "setting": "C. difficile [2]", "value": "kills"}
    ]},
    {"smiles": "C[C@H](CCC(=O)NCC(=O)O)[C@H]1CC[C@H]2[C@@H]3CC[C@@H]4C[C@H](O)CC[C@]4(C)[C@H]3C[C@H](O)[C@]12C", "note": "[GDCA, glycodeoxycholate]", "values": [
      {"measurement": "growth of L. acidophilus ΔbshAB", "setting": "L. acidophilus ΔbshAB; 2.5 mM bile acid in MRS", "value": "significantly inhibited"},
      {"measurement": "growth of L. gasseri ΔbshAB", "setting": "L. gasseri ΔbshAB; 1.25 mM bile acid in MRS", "value": "significantly inhibited"}
    ]},
    {"smiles": "C[C@H](CCC(=O)NCCS(=O)(=O)O)[C@H]1CC[C@H]2[C@@H]3CC[C@@H]4C[C@H](O)CC[C@]4(C)[C@H]3C[C@H](O)[C@]12C", "note": "[TDCA, taurodeoxycholate]", "values": [
      {"measurement": "growth of L. acidophilus ΔbshAB", "setting": "L. acidophilus ΔbshAB; 5 mM bile acid in MRS", "value": "significantly inhibited"}
    ]},
    {"smiles": "C[C@H](CCC(=O)NCC(=O)O)[C@H]1CC[C@H]2[C@@H]3[C@H](O)C[C@@H]4C[C@H](O)CC[C@]4(C)[C@H]3C[C@H](O)[C@]12C", "note": "[GCA, glycocholate]", "values": [
      {"measurement": "growth of L. acidophilus ΔbshAB", "setting": "L. acidophilus ΔbshAB; 5 mM bile acid in MRS", "value": "less inhibited"},
      {"measurement": "growth of L. gasseri ΔbshAB", "setting": "L. gasseri ΔbshAB; 5 mM bile acid in MRS", "value": "significantly less inhibited"}
    ]}
  ]
}
